Results from US11439707B2, “Hypocrellin derivative substituted both in a peri-position and in 2-position by amino, preparation method, and application thereof” (priority 2017, dated 2022).

How the values were obtained:
[1] = absorption spectrum (maximum absorption wavelength, molar extinction coefficient); type: physicochemical
[2] = singlet oxygen efficiency test, reference rose bengal; type: physicochemical

Structure (SMILES)	maximum absorption wavelength [1] [nm]	molar extinction coefficient [1]	singlet oxygen yield [2] [%]
COCCOC(=O)C1CCCCC1Nc1c(NC2CCCCC2C(=O)OCCOC)c2c(=O)cc(OC)c3c4c(OC)cc(=O)c5c(O)c(OC)c6c(c(c1C=C(C)C6C(C)=O)c23)c54 (stereo not drawn) [HB-16a-PEG1]	624	30,500 M^−1cm^−1	32
COc1c(O)c2c(=O)cc(OC)c3c4c(OC)cc(=O)c5c(NC6CCCC6C(=O)O)c(NC6CCCC6C(=O)O)c6c(c(c1C(C(C)=O)C(C)=C6)c23)c54 (stereo not drawn) [HB-21a]	620	23,500 M^−1cm^−1	20
COCCOCCOCCOCCOCCOCCOCCOCCOCCOCCOCCOCCOC(=O)C1CCC(Nc2c3c4c5c(c(OC)c(=O)c6c(O)cc(OC)c(c7c(OC)cc(NC8CCC(C(=O)OCCOCCOCCOCCOCCOCCOCCOCCOCCOCCOCCOCCOC)C8)c(c2=O)c74)c65)C(C(C)=O)C(C)=C3)C1 (stereo not drawn) [HB-19c-PEG12]	636	33,500 M^−1cm^−1	38
COCCOCCOCCOCCOCCOCCOCCOCCOCCOCCOCCOCCOC(=O)CCCNc1c2c3c4c(c(OC)c(=O)c5c(O)cc(OC)c(c6c(OC)cc(NCCCC(=O)OCCOCCOCCOCCOCCOCCOCCOCCOCCOCCOCCOCCOC)c(c1=O)c63)c54)CC(C)=C2 [HC-8c-PEG12]	628	32,500 M^−1cm^−1	38
COc1c2c3c4c(c(NC(CC(N)=O)C(=O)O)c(=O)c5c(O)cc(OC)c(c6c(OC)cc(NC(CC(N)=O)C(=O)O)c(c1=O)c63)c54)C=C(C)C2C(C)=O (stereo not drawn) [HB-26d]	622	20,500 M^−1cm^−1	16
CCNc1c(O)c2c(=O)cc(OC)c3c4c(OC)cc(=O)c5c(NC6CCCC6)c(OC)c6c(c(c1C=C(C)C6C(C)=O)c23)c54 (stereo not drawn) [HB-44b]	621	21,000 M^−1cm^−1	18
COCCOCCOCCOCCOCCOCCOC(=O)CCCNc1c2c3c4c(c(OC)c(=O)c5c(NCCCC(=O)OCCOCCOCCOCCOCCOCCOC)cc(OC)c(c6c(OC)cc(O)c(c1=O)c63)c54)CC(C)=C2 [HC-8d-PEG6]	624	31,500 M^−1cm^−1	32
COCCOC(=O)C1CCC(Nc2c(NC3CCC(C(=O)OCCOC)CC3)c3c(=O)cc(OC)c4c5c(OC)cc(=O)c6c(O)c(OC)c7c(c(c2C=C(C)C7C(C)=O)c34)c65)CC1 (stereo not drawn) [HB-14a-PEG1]	622	30,500 M^−1cm^−1	32
COc1c(O)c2c(=O)cc(OC)c3c4c(OC)cc(=O)c5c(NC6CCC(O)CC6)c(NC6CCC(O)CC6)c6c(c(c1C(C(C)=O)C(C)=C6)c23)c54 (stereo not drawn) [HB-17a]	617	25,000 M^−1cm^−1	22
CCNNc1c(NNCC)c2c(=O)cc(OC)c3c4c(OC)cc(=O)c5c(O)c(OC)c6c(c(c1C=C(C)C6C(C)=O)c23)c54 (stereo not drawn) [HB-36a]	621	30,500 M^−1cm^−1	32
COCCOC(=O)C1CCC(CNc2c(NCC3CCC(C(=O)OCCOC)CC3)c3c(=O)cc(OC)c4c5c(OC)cc(=O)c6c(O)c(OC)c7c(c(c2C=C(C)C7)c34)c65)CC1 (stereo not drawn) [HC-13a-PEG1]	622	30,000 M^−1cm^−1	32
COc1c2c3c4c(c(NCC5CCC(C(=O)OCCCCCC[P+](c6ccccc6)(c6ccccc6)c6ccccc6)CC5)c(=O)c5c(NCC6CCC(C(=O)OCCCCCC[P+](c7ccccc7)(c7ccccc7)c7ccccc7)CC6)cc(OC)c(c6c(OC)cc(O)c(c1=O)c63)c54)C=C(C)C2 (stereo not drawn) [HC-30c-C6-PPh3^+]	632	33,500 M^−1cm^−1	40
COCCOCCC(=O)N1CCC(CNc2c(NCC3CCN(C(=O)CCOCCOC)CC3)c3c(=O)cc(OC)c4c5c(OC)cc(=O)c6c(O)c(OC)c7c(c(c2C=C(C)C7C(C)=O)c34)c65)CC1 (stereo not drawn) [HB-31a-PEG1]	622	32,000 M^−1cm^−1	32
COc1c(O)c2c(=O)cc(OC)c3c4c(OC)cc(=O)c5c(NC(CC(N)=O)C(=O)O)c(NC(CC(N)=O)C(=O)O)c6c(c(c1C(C(C)=O)C(C)=C6)c23)c54 (stereo not drawn) [HB-26a]	614	20,500 M^−1cm^−1	20
COCCOCCOCCOCCOCCOCCOCCOCCOCCNC(=O)C1CCC(CNc2c3c4c5c(c(OC)c(=O)c6c(O)cc(OC)c(c7c(OC)cc(NCC8CCC(C(=O)NCCOCCOCCOCCOCCOCCOCCOCCOCCOC)CC8)c(c2=O)c74)c65)C(C(C)=O)C(C)=C3)CC1 (stereo not drawn) [HB-13c-NH-PEG8]	630	33,500 M^−1cm^−1	39
COCCOCCOCCOCCOCCOCCOCCC(=O)OC1CCC(Nc2c(O)c3c(=O)cc(OC)c4c5c(OC)cc(=O)c6c(NC7CCC(OC(=O)CCOCCOCCOCCOCCOCCOCCOC)C7)c(OC)c7c(c(c2C=C(C)C7C(C)=O)c34)c65)C1 (stereo not drawn) [HB-20b-PEG6]	624	31,000 M^−1cm^−1	28

Structure (SMILES)	maximum absorption wavelength [1] [nm]	molar extinction coefficient [1]	singlet oxygen yield [2] [%]
COCCOCCN1C(=O)CN(C(=O)OCCNc2c(NCCOC(=O)N3CC(=O)N(CCOCCOC)C(=O)C3)c3c(=O)cc(OC)c4c5c(OC)cc(=O)c6c(O)c(OC)c7c(c(c2C=C(C)C7C(C)=O)c34)c65)CC1=O (stereo not drawn) [HB-40a-PEG1]	624	31,500 M^−1cm^−1	32
COc1c(NCCCC(=O)O)c2c(=O)cc(OC)c3c4c(OC)cc(=O)c5c(O)c(NCCCC(=O)O)c6c(c(c1CC(C)=C6)c23)c54 [HC-8b]	622	28,000 M^−1cm^−1	25
COc1c(O)c2c(=O)cc(OC)c3c4c(OC)cc(=O)c5c(NC6CCC(C(=O)O)C6)c(NC6CCC(C(=O)O)C6)c6c(c(c1C(C(C)=O)C(C)=C6)c23)c54 (stereo not drawn) [HB-19a]	621	25,500 M^−1cm^−1	21
COCCOCCOCCOCCOCCOCCOCCOCCOCCOCCOCCOCCOCCN1CCC(CNc2c3c4c5c(c(OC)c(=O)c6c(NCC7CCN(CCOCCOCCOCCOCCOCCOCCOCCOCCOCCOCCOCCOCCOC)CC7)cc(OC)c(c7c(OC)cc(O)c(c2=O)c74)c65)C(C(C)=O)C(C)=C3)CC1 (stereo not drawn) [HB-32d-PEG12]	632	31,500 M^−1cm^−1	33
COc1c2c3c4c(c(NCCS(=O)(=O)OC)c(=O)c5c(O)cc(OC)c(c6c(OC)cc(NCCS(=O)(=O)OC)c(c1=O)c63)c54)C=C(C)C2C(C)=O (stereo not drawn) [HB-12d]	624	21,500 M^−1cm^−1	21
COc1c2c3c4c(c(NCC(=O)O)c(=O)c5c(O)cc(OC)c(c6c(OC)cc(NCC(=O)O)c(c1=O)c63)c54)C=C(C)C2 [HC-7d]	626	26,000 M^−1cm^−1	25
COc1c(NCCCC(=O)NCCCC[N+](C)(C)C)c2c(=O)cc(OC)c3c4c(OC)cc(=O)c5c(O)c(NCCCC(=O)NCCCC[N+](C)(C)C)c6c(c(c1CC(C)=C6)c23)c54 [HC-8b-NH—C4-N^+]	626	30,500 M^−1cm^−1	32
COC(=O)C1CCC(CNc2c(O)c3c(=O)cc(OC)c4c5c(OC)cc(=O)c6c(NCC7CCC(C(=O)OC)CC7)c(OC)c7c(c(c2C=C(C)C7C(C)=O)c34)c65)CC1 (stereo not drawn) [HB-13b-AcE]	623	27,000 M^−1cm^−1	24
COc1c(O)c2c(=O)cc(OC)c3c4c(OC)cc(=O)c5c(NCCO)c(NCCO)c6c(c(c1CC(C)=C6)c23)c54 [HC-2a]	627	28.500 M⁻¹ cm⁻¹	32
COCCOCCOCCOCCOCCNC(=O)C1CCC(CNc2c(O)c3c(=O)cc(OC)c4c5c(OC)cc(=O)c6c(NCC7CCC(C(=O)NCCOCCOCCOCCOCCOC)CC7)c(OC)c7c(c(c2C=C(C)C7C(C)=O)c34)c65)CC1 (stereo not drawn) [HB-13b-NH-PEG4]	622	31,000 M^−1cm^−1	34
COCCOCCOCCOCCOCCOCCOCCC(=O)OC1CCC(Nc2c3c4c5c(c(OC)c(=O)c6c(NC7CCC(OC(=O)CCOCCOCCOCCOCCOCCOCCOC)C7)cc(OC)c(c7c(OC)cc(O)c(c2=O)c74)c65)C(C(C)=O)C(C)=C3)C1 (stereo not drawn) [HB-20d-PEG6]	630	30,500 M^−1cm^−1	32
COc1c2c3c4c(c(NCCOCCO)c(=O)c5c(O)cc(OC)c(c6c(OC)cc(NCCOCCO)c(c1=O)c63)c54)C=C(C)C2 [HC-1d]	626	28,500 M^−1cm^−1	32
COc1c2c3c4c(c(NCCC5CCC(O)CC5)c(=O)c5c(NCCC6CCC(O)CC6)cc(OC)c(c6c(OC)cc(O)c(c1=O)c63)c54)C=C(C)C2C(C)=O (stereo not drawn) [HB-18c]	624	23,500 M^−1cm^−1	23
COc1c(NC2CCC(O)CC2)c2c(=O)cc(OC)c3c4c(OC)cc(=O)c5c(O)c(NC6CCC(O)CC6)c6c(c(c1C(C(C)=O)C(C)=C6)c23)c54 (stereo not drawn) [HB-17b]	620	25,500 M^−1cm^−1	20
COc1c2c3c4c(c(NCCS(=O)(=O)OC)c(=O)c5c(NCCS(=O)(=O)OC)cc(OC)c(c6c(OC)cc(O)c(c1=O)c63)c54)C=C(C)C2C(C)=O (stereo not drawn) [HB-12c]	622	23,500 M^−1cm^−1	22
COc1c2c3c4c(c(NCCOC(=O)N5CC(=O)NC(=O)C5)c(=O)c5c(O)cc(OC)c(c6c(OC)cc(NCCOC(=O)N7CC(=O)NC(=O)C7)c(c1=O)c63)c54)C=C(C)C2C(C)=O (stereo not drawn) [HB-40d]	628	31,500 M^−1cm^−1	30
